Each structure is given as a SMILES string.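 Five compound concentrations were applied to cells in 96-well plates for 48 hours; endpoints were derived by simple linear interpolation of the resulting dose-response curve. GI50: concentration for 50% inhibition of growth. TGI is the concentration that stops growth completely.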 A value given as a limit tells only on which side of the number the result lay.

Among the test systems are MALME-3M melanoma; HCT-15 colon; UO-31 renal; SK-MEL-28 melanoma; A498 renal; SF-539 CNS; ACHN renal; SF-295 CNS; PC-3 prostate; NCI/ADR-RES ovarian.
Holding throughout (test): DTP human tumour cell line panel, 48 h

`O=C1c2ccccc2CC1C1(O)C(=O)Nc2ccccc21` (stereo not given): the concentration for total growth inhibition (TGI) in the test with MALME-3M melanoma, with HCT-15 colon, with UO-31 renal, in the test on SK-MEL-28 melanoma, in the test with A498 renal and in the test with SF-539 CNS was greater than 100 µM in each case. The total growth inhibition concentration (TGI) in the test on ACHN renal and in the test with SF-295 CNS was greater than 100 µM in each case.

On to `Cc1cn2c(/C=N/Nc3ccccn3)c(-c3ccc(Cl)c([N+](=O)[O-])c3)nc2s1`, for which the GI50 was 20.8 µM in the test with PC-3 prostate; 16 µM in the test on HCT-15 colon; 11.3 µM in the test on NCI/ADR-RES ovarian; 13.1 µM in the test on UO-31 renal; 26.5 µM in the test on SK-MEL-28 melanoma; 1.12 µM with SF-539 CNS. Also, the GI50 with ACHN renal was 6.89 µM; in the test on SF-295 CNS, 23 µM. For the same compound, the TGI with PC-3 prostate is greater than 50 µM; in the test on HCT-15 colon, greater than 50 µM; in the test on NCI/ADR-RES ovarian, 30.9 µM; in the test with UO-31 renal it was greater than 50 µM; with SK-MEL-28 melanoma, greater than 50 µM; in the test with SF-539 CNS, 3.53 µM. For the same compound, the TGI with ACHN renal is 15.5 µM; in the test on SF-295 CNS, greater than 50 µM.

With `N#Cc1cc([N+](=O)[O-])ccc1NC(=O)/C(=N/N)C(C(=O)c1ccc(Cl)c(Cl)c1)C1OC(=O)c2ccccc21` (stereo not given), the total growth inhibition concentration (TGI) with MALME-3M melanoma, with HCT-15 colon, with UO-31 renal, in the test with SK-MEL-28 melanoma, in the test with A498 renal and in the test with SF-539 CNS was greater than 100 µM in each case. The concentration for total growth inhibition (TGI) in the test with ACHN renal and in the test with SF-295 CNS was greater than 100 µM each time.

Regarding `COc1cc(C)c(O)c(C(=O)O)c1`, the TGI in the test on MALME-3M melanoma, in the test with HCT-15 colon, in the test with UO-31 renal, in the test with SK-MEL-28 melanoma, with A498 renal and in the test with ACHN renal was greater than 100 µM each time. In addition, the TGI in the test with SF-295 CNS was greater than 100 µM.

As to `CCOC(=O)c1nc(-c2ccccc2)oc1OCC`, the TGI with SK-MEL-28 melanoma, in the test on SF-539 CNS and in the test on SF-295 CNS was greater than 100 µM throughout.

For `CC(C)C[C@H](NC(=O)[C@@H](O)[C@H](N)Cc1ccc([N+](=O)[O-])cc1)C(=O)O`, the GI50 with PC-3 prostate, in the test on MALME-3M melanoma, in the test with HCT-15 colon, in the test on NCI/ADR-RES ovarian, in the test on UO-31 renal and with SK-MEL-28 melanoma was greater than 25 µM in each case. The GI50 with SF-539 CNS, in the test with ACHN renal and in the test with SF-295 CNS was greater than 25 µM throughout. In addition, the concentration for total growth inhibition (TGI) with PC-3 prostate, in the test with MALME-3M melanoma, with HCT-15 colon, in the test on NCI/ADR-RES ovarian, in the test with UO-31 renal and in the test on SK-MEL-28 melanoma was greater than 25 µM each time. The TGI in the test with SF-539 CNS, with ACHN renal and in the test with SF-295 CNS was greater than 25 µM each time.

Take `Cc1ccc(Sc2ccc(C)cc2[N+](=O)[O-])c([N+](=O)[O-])c1`: the TGI in the test with MALME-3M melanoma, in the test with HCT-15 colon, in the test on UO-31 renal, in the test on SK-MEL-28 melanoma, in the test with A498 renal and with SF-539 CNS was greater than 100 µM throughout. Moreover, the TGI in the test with ACHN renal and with SF-295 CNS was greater than 100 µM each time.

Take `CCOC(=O)C1=C(Nc2cccc3ccccc23)OC/C1=N\NC(=O)c1ccccc1O`: the total growth inhibition concentration (TGI) is greater than 100 µM with MALME-3M melanoma; greater than 100 µM in the test with HCT-15 colon; greater than 87.6 µM in the test on UO-31 renal; greater than 100 µM in the test on SK-MEL-28 melanoma; 70.6 µM in the test with A498 renal; 46.8 µM in the test on SF-539 CNS. Also, the TGI with ACHN renal and with SF-295 CNS was greater than 100 µM each time.

As to `COc1cccc2nc3cc(C)c(C)cc3nc12`, the TGI with MALME-3M melanoma, in the test with HCT-15 colon, in the test on UO-31 renal, with SK-MEL-28 melanoma, with A498 renal and with SF-539 CNS was greater than 100 µM in each case. Also, the concentration for total growth inhibition (TGI) with ACHN renal and in the test with SF-295 CNS was greater than 100 µM in each case.

Take `COC(=O)C1=C(O)c2cc3c(cc2[C@H](c2cc(OC)c(OC)c(OC)c2)C1C(=O)OC)OCO3` (stereo not given in full): the TGI with MALME-3M melanoma is 87.3 µM; in the test with HCT-15 colon, greater than 100 µM; in the test on UO-31 renal, greater than 100 µM; in the test on SK-MEL-28 melanoma, greater than 100 µM; in the test with A498 renal, greater than 100 µM; in the test on SF-539 CNS, greater than 100 µM. Moreover, the TGI was 58.1 µM in the test on ACHN renal and greater than 100 µM in the test on SF-295 CNS.

In the case of `CC(C)C12C=CC(C)(CC1)n1c(=O)c3cc4ccccc4cc3c(=O)n12` (stereo not given), the concentration for total growth inhibition (TGI) in the test with MALME-3M melanoma is greater than 100 µM; in the test on HCT-15 colon, greater than 100 µM; in the test on UO-31 renal, 96.6 µM; in the test on SK-MEL-28 melanoma it was greater than 100 µM; in the test on A498 renal, 79.1 µM; in the test on SF-539 CNS, greater than 100 µM. In addition, the TGI in the test on ACHN renal and in the test with SF-295 CNS was greater than 100 µM each time.

Consider `COC(=O)C1=C(C(=O)OC)SC(=C(N=Nc2ccccc2)c2ccccc2)S1`, for which the concentration for total growth inhibition (TGI) in the test with MALME-3M melanoma, in the test on HCT-15 colon, with UO-31 renal, in the test on SK-MEL-28 melanoma, in the test on A498 renal and in the test with SF-539 CNS was greater than 100 µM in each case. Besides, the concentration for total growth inhibition (TGI) in the test on ACHN renal and in the test on SF-295 CNS was greater than 100 µM throughout.

Turning to `COC(=O)c1cc(-c2cccn2C)c2c(c1C(=O)OC)c1ccccc1n2C`, the TGI in the test with MALME-3M melanoma, in the test on HCT-15 colon, in the test with UO-31 renal, in the test with SK-MEL-28 melanoma, in the test with SF-539 CNS and in the test with ACHN renal was greater than 100 µM each time. In the test with SF-295 CNS, the concentration for total growth inhibition (TGI) is greater than 100 µM.

As to `O=C(Nc1nc(=S)c2c(ncn2CCO)[nH]1)c1ccccc1`, the concentration for total growth inhibition (TGI) with MALME-3M melanoma, with HCT-15 colon, in the test with UO-31 renal, in the test on A498 renal, in the test on SF-539 CNS and with ACHN renal was greater than 100 µM in each case. The compound further showed a TGI with SF-295 CNS greater than 100 µM.

As for `O=c1[nH]c(-c2ccc(-c3nc4cc([N+](=O)[O-])ccc4c(=O)[nH]3)cc2)nc2cc([N+](=O)[O-])ccc12`, the TGI is greater than 100 µM in the test with MALME-3M melanoma; greater than 100 µM in the test with HCT-15 colon; greater than 100 µM in the test with UO-31 renal; greater than 100 µM with SK-MEL-28 melanoma; 31.3 µM in the test on A498 renal; greater than 100 µM in the test with SF-539 CNS. Further, the TGI with ACHN renal and in the test on SF-295 CNS was greater than 100 µM in each case.
